In patent US10517844B2, “Inhibition of proline catabolism for the treatment of cancer and other therapeutic applications” (Buck Institute for Research on Aging, priority 2014, dated 2019):
Entries after “also recorded” stand apart in the source; their conditions may differ.

Experiments:
PRODH [1] = molecular target: T1, PRODH (Homo sapiens, UniProt O43272); experiment: NADH-generating mitochondrial PRODH bioassay; type: biochemical
T1 construct: Mitochondria freshly isolated from PPG pretreated (15 h) and washed (30 min) ZR-75-1 cells; endogenous in cells; host or cells: mitochondria isolated from ZR-75-1 human breast cancer cells
T1 sequence (O43272 1-600): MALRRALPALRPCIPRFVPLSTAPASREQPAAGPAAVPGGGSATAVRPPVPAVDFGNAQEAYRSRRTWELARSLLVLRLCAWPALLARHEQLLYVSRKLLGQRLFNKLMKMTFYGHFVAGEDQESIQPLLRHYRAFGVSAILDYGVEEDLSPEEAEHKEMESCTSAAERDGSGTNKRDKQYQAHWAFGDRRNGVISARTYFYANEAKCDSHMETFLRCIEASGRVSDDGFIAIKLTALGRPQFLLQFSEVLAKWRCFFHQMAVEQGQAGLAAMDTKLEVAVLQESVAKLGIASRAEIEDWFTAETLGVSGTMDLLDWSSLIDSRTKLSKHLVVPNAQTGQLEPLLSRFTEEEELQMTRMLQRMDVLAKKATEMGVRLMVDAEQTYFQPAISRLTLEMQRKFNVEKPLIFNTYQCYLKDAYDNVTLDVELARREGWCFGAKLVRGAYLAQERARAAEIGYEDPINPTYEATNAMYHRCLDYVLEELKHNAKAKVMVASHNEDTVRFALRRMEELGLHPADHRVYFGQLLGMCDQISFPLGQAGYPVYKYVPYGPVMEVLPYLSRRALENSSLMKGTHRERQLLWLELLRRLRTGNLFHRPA
From the text: Mitochondrial PRODH bioassays capable of measuring inhibitor activity are described in Goncalves et al. (2014) Redox Biol. 2: 901-909 (which is hereby incorporated by reference herein for this description). These include, inter alia: i) spectrophotometric detection of OAB reacted with proline generated P5C, ii) dual wavelength spectrophotometric detection (A566-A575) of endogenous cytochrome b566 reduction that occurs directly upon mitochondrial PRODH oxidation of proline, and iii) fluorescence spectrometry detection (lex 340 nm, lem 460 nm) of mitochondrial NADH levels as a function of substrate and inhibitor treatment. See details in Example below. The mitochondrial PRODH assay is described therein detects mitochondrial NADH production resulting downstream from PRODH production of P5C and then glutamate, while controlling for other sources of mitochondrial NADH production.
We have optimized our mitochondrial preparation technique and developed three different mitochondrial PRODH bioassays capable of measuring inhibitor activity which are now reported (Goncalves et al. (2014) Redox Biol. 2: 901-909); these include: i) spectrophotometric detection of OAB reacted with proline generated P5C, ii) dual wavelength spectrophotometric detection (A566-A575) of endogenous cytochrome b566 reduction that occurs directly upon mitochondrial PRODH oxidation of proline, and iii) fluorescence spectrometry detection (lex 340 nm, lem 460 nm) of mitochondrial NADH levels as a function of substrate and inhibitor treatment.
Briefly, in an exemplary protocol, cells are harvested from 2 to 4500 cm^2 dishes at 90% confluence, washed three times in ice-cold STE (250 mM sucrose, 5 mM Tris-HCl, 2 mM EGTA, pH7.4), scraped off, suspended in 50 ml STE and centrifuged for 10 min at 500 g. The pellet is resuspended in STE supplemented with 1% (w/v) fatty acid-free bovine serum albumin and homogenized (up to 20 strokes). The suspension is brought to 50 ml and centrifuged for 5 min at 1000 g. The supernatant is centrifuged for 10 min at 11,000 g. The pellet is resuspended in STE and centrifuged for 10 min at 10,000 g. The mitochondrial pellet is resuspended in STE and kept on ice. Protein is determined by Bradford assay(Biorad).
NAD(P)H is measured using 0.3 mg mitochondrial protein/ml at 37° C. in KHEPMB (KHE containing 5 mM K2HPO4, 2 mM MgCl2, 0.3% (w/v) fatty acid-free bovine serum albumin) plus 1 mM ADP and 2.5 μg/ml oligomycin. The reduction state of endogenous NAD(P)H Is determined by autofluorescence using the Pherastar microplate reader at λexcitation=340 nm, λemission=460 nm. NAD(P)H was assumed to be 0% reduced after 5 min without added substrate, then rotenone was added. The 100% reduced level was established with saturating substrate (e.g., 5 mM malate, glutamate and proline) and 4 μM rotenone. Intermediate values were determined as % reduced NAD(P)H relative to the 0% and 100% values.
For screening purposes, the NADH fluorescence bioassay can be routinely used as it is the most sensitive and amenable to higher throughput.

MCF10A cells = experiment: Cell viability, non-malignant cells; type: cell-based, human
DU4475 = experiment: Growth inhibition / cell viability, drug combination; type: cell-based, human; conditions: for Growth inhibiting interaction with CB-839: 72 h
breast cancer models = experiment: Interaction of PRODH inhibitors with p53 wt restoration; type: cell-based, human; conditions: various breast cancer models
From the text: Our recent studies have shown that p53 wt restoration by the MDM2 inhibitor MI-63 triggers early and very different mitochondrial bioenergetic and global metabolic pool changes between malignant (e.g., MCF7, ZR-75-1, ZR-75-30, DU4475) and non-malignant (e.g., MCF-10A) mammary epithelial systems (Yau et al. (2011) Amer. Assoc. Cancer Res. 52: a3797, 2011; Yau et al. (2012) Amer. Assoc. Cancer Res. 53: a5160). Having first observed that PRODH siRNA knockdown promotes apoptosis in p53 wt breast cancer cells, we then evaluated PRODH knockdown in combination with MI-63 induced p53 restoration. […] Knockdown of P5CDH (the next enzymatic step in proline catabolism) produced a similar but less pronounced pro-apoptotic response in combination with MI-63, convincing us that PRODH is the most appropriate therapeutic target for synthetic lethality. […] Equally relevant, since PRODH provides a bypass source of mitochondrial glutamate for glutamine-addicted (e.g., GLS1 overexpressing) cancers, particularly those most sensitive to clinically emergent GLS1 inhibitors like CB-839 (Katt and Cerione (2014) Drug Discov. Today, 19: 450-457; Gross et al. (2014) Mol. Cancer Ther. 13: 890-901), our new data also supports the fact that PRODH inhibition induces a synthetic lethal anticancer response in combination with GLS1 inhibition among our various breast cancer models.

ZR75-1 = experiment: Growth inhibition, drug combination; type: cell-based, human; conditions: for Growth inhibiting interaction with CB-839: 72 h
MCF7 = experiment: Growth inhibition / cell viability, drug combination; type: cell-based, human; conditions: for Growth inhibiting interaction with CB-839: 72 h; for Cell viability, interaction with CB-839: MCF7, single dose, 48 h
BT474 = experiment: Growth inhibition, drug combination; type: cell-based, human; conditions: for Growth inhibiting interaction with CB-839: 72 h
[2] = system: multiple breast cancer cell lines; experiment: Growth inhibition in combination with CB-839; type: cell-based, human
ZR-75-1 = experiment: Protein degradation in treated culture (Western blot); type: cell-based, human
Drosophila = Drosophila lifespan after dietary PPG during oogenesis; type: in vivo; conditions: dietary 5 mM x 24 h during oogenesis, 2nd day collected eggs, 70 days
Protocol: Female Drosophila were starved for 4 h, then combined with males on liquid 5% sucrose food with or without 5 mM PPG. After 24 h, females were transferred to egg collection containers, and eggs collected after 1, 2, and 3 days. Collected eggs were transferred to bottles of regular food, separately for each collection day. Larvae developed normally, were transferred to vials after eclosion; vials were exchanged thrice weekly throughout life.

PRODH [3] = experiment: Dietary PPG in adult Drosophila, Sluggish-A phenotype; type: in vivo; conditions: dietary 5 mM x 48 h
[4] = system: DU4475 breast cancer cells; experiment: Apoptosis by cleaved PARP Western blot; type: cell-based, human; conditions: DU4475, combined with MI-63
PRODH [5] = conditions: cited from earlier work
[6] = system: malignant breast epithelial cells; experiment: Protein levels after p53 restoration by MI-63; type: cell-based, human
From the text: New cancer treatments based on the restoration or reactivation of p53 wt function were first envisioned over a decade ago, and multiple pharmacological strategies have since emerged from preclinical studies that now show great clinical promise (12-17), particularly against malignancies like breast cancers in which 75% of all newly diagnosed cases express wildtype p53 (TCGA Network (2012). Nature 490: 61-70). […] Likewise, p53 induced metabolic changes linking proline metabolism to the urea cycle (OAT) and to glutaminolysis (GLS2) and the TCA cycle have been observed in our model systems (Yau et al. (2012) Amer. Assoc. Cancer Res. 53: a5160).

[7] = ZR-75-1 cells pretreated 15 h, washed 30 min

In the case of `C#CC(C)NCC(=O)O` (racemic) [(R/S)-PPG], the PRODH inhibiting activity (PRODH [1]; mitochondrial PRODH assay) is reported as “retains PRODH inhibiting activity”.

With `O=C1CC[C@@H](C(=O)O)O1` [Compound 5-oxo, (S)-(+)-5-oxo-2-tetrahydrofurancarboxylic acid] the “Cell viability / growth inhibition in non-malignant cells” value (MCF10A cells; combined with CB-839) was “no treatment effects”, the “Cell viability / growth inhibition in non-malignant cells” value (MCF10A cells; combined with CB-839, listed as S-5-oxo) was “lack of any growth inhibition” and the Treatment interaction (DU4475; DU4475, 5-oxo (1 μM) + CB839 (1 μM)) was “Synergistic”. For the same compound, the “Growth inhibiting interaction with CB-839” value (DU4475; DU4475, +5-oxo (5 mM)) was “Synergistic”, the “Interaction with p53 wt restoration” value (breast cancer models) was “synthetic lethal interactions” and the “S versus R isomers in mitochondrial PRODH bioassay” value (PRODH [1]) was “stereospecificity of S-5-oxo”. The “PRODH enzymatic inhibition after washout” value (PRODH [1]; same washout (30 min)) was “completely lost (reversed); also recorded: completely lost by washout”, the Treatment interaction (ZR75-1; ZR75-1, 5-oxo (1 μM) + CB839 (1 μM)) was “Synergistic” and the “Growth inhibiting interaction with CB-839” value (ZR75-1; ZR75-1, +5-oxo (5 mM)) was “Synergistic”. The Treatment interaction (MCF7; MCF7, 5-oxo (1 μM) + CB839 (1 μM)) was “Synergistic”, the “Growth inhibiting interaction with CB-839” value (MCF7; MCF7, +5-oxo (5 mM)) was “Synergistic” and the “Cell viability, interaction with CB-839” value (MCF7) was “additive interactions”. For the same compound, the Treatment interaction (BT474; BT474, 5-oxo (1 μM) + CB839 (1 μM)) was “Additive”, the “Growth inhibiting interaction with CB-839” value (BT474; BT474, +5-oxo (5 mM)) was “Additive” and the “Growth inhibition in combination with CB-839” value ([2]; within 48 h) was “additive growth inhibition”. For the same compound, the “Growth inhibition in combination with CB-839” value ([2]; within 72 h) was “synergistic growth inhibition”.

For `COc1ccc(C2=N[C@@H](c3ccc(Cl)cc3)[C@@H](c3ccc(Cl)cc3)N2C(=O)N2CCNC(=O)C2)c(OC(C)C)c1` [Nutlin-3a, reference compound], the “Growth inhibiting interaction with CB-839” value (DU4475; DU4475, +Nutlin-3a (5 μM)) was “Synergistic”, the “Growth inhibiting interaction with CB-839” value (ZR75-1; ZR75-1, +Nutlin-3a (5 μM)) was “Additive” and the “Growth inhibiting interaction with CB-839” value (MCF7; MCF7, +Nutlin-3a (5 μM)) was “Additive”. The “Growth inhibiting interaction with CB-839” value (BT474; BT474, +Nutlin-3a (5 μM)) was “No interaction”.

With `C#CCNCC(=O)O` [PPG, N-propargylglycine] the “Cell viability / growth inhibition in non-malignant cells” value (MCF10A cells; combined with CB-839) was “no treatment effects; also recorded: lack of any growth inhibition”, the “Time of exposure to PRODH protein degradation” value (ZR-75-1) was at most 24 h and the “Cytoplasmic FAD containing protein MTHFR decline” value (ZR-75-1; ZR-75-1, 24-72 h) was “does not”. The “Mitochondrial complex-1 protein NDUFS1 level” value (ZR-75-1; ZR-75-1, 24-72 h) was “also declines”, the “Degradation of PRODH protein” value (ZR-75-1; ZR-75-1 culture treatment, within 24-72 h) was 30-60% and the “Median and maximum lifespan” value (Drosophila) was “significantly extends median and maximum lifespan”. The “Interaction with p53 wt restoration” value (breast cancer models) was “synthetic lethal interactions”, the “PRODH enzymatic inhibition compared at equimolar inhibitor concentration” value (PRODH [1]; 2 mM) was “significantly greater PRODH enzymatic inhibition over S-5-oxo” and the “Malate metabolism (NADH formation) by isolated mitochondria” value (PRODH [1]; [7]) was “not affected; also recorded: fully capable of metabolizing malate”. The “Proline metabolism (NADH formation) by isolated mitochondria” value (PRODH [1]; [7]) was “remain unable to metabolize proline; also recorded: remained completely unable to metabolize proline”, the “Cell viability, interaction with CB-839” value (MCF7) was “additive interactions” and the “Growth inhibition in combination with CB-839” value ([2]; within 48 h) was “additive growth inhibition”. For the same compound, the “Growth inhibition in combination with CB-839” value ([2]; within 72 h) was “synergistic growth inhibition”, the Fly viability (PRODH [3]) was “without loss of fly viability” and the “PRODH inhibition in vivo (Sluggish-A phenotype)” value (PRODH [3]) was “completely inhibits PRODH in vivo”.

With `O=C(O)[C@@H]1CCCO1` [L-THFA, L-tetrahydro-2-furoic acid] the “Viable cell growth in culture” value (DU4475; DU4475, combined with MI-63) was “synthetic lethality effectiveness; also recorded: synergistically reduces viable cell growth”, the “Apoptosis (c PARP production) over MI-63 treatment alone” value [4] was about 4 fold and the “Interaction with p53 wt restoration” value (breast cancer models) was “synthetic lethal interactions”. For the same compound, the Ki (PRODH [5]) was 300 µM.

With `CC(C)(C)C[C@H]1N[C@@H](C(=O)NCCN2CCOCC2)[C@H](c2cccc(Cl)c2F)[C@@]12C(=O)Nc1cc(Cl)ccc12` [MI-63] the “Induction of PRODH protein levels” value [6] was at least 5 fold, the “P5C reductase (PYCR1) levels” value [6] was “coordinate decrease” and the P5CDH protein level [6] was “no change”.
